Reference: patent US5576303A, “Energy-supplementing saccharide source and its uses” (priority 1993, dated 1996)
Read-outs that look alike come from different tables or passages of the source. Blank lines part the entries; values can stand above or below the molecule they belong to.

Columns and labels:
[1] = Digestion test in vitro (enzyme derived from rat small intestinal mucous membrane); type: in vitro ADME; settings: small intestinal mucosa enzyme, Tables 4 and 5, rat small intestinal enzyme, read-out: Decomposition rate
Experimental: (§1) By using a trehalose solution of a high-purity hydrous crystalline trehalose prepared by the method in Experiment 1-2, a digestion test of trehalose was carried out in vitro in accordance with the method as reported by K. Okada et al. in JOURNAL OF JAPANESE SOCIETY OF NUTRITION AND FOOD SCIENCE, Vol.43, No.1, pp.23-29 (1990). The digestibility of trehalose was evaluated based on the decomposition rate (%) calculated by the following equation: [formula]
As evident from the results in Table 4, trehalose was not substantially hydrolyzed by the enzyme derived from rat small intestinal mucous membrane. By using the rat enzyme, disaccharides were tested for their digestibility similarly as above.

[2] = cited from earlier work
[3] = Isotonicity to rabbit blood; type: physicochemical
Experimental: (§2) A hydrous crystalline trehalose prepared by the method in Experiment 1-2 was dissolved in a refined water, and the resultant solution was membrane filtered, concentrated and recrystallized to obtain a pyrogen-free hydrous crystalline trehalose. The crystal thus obtained was dissolved in injectable distilled water into a 10 w/v % solution isotonic to rabbit blood as trehalose infusion. By using 6 rabbits, about 2-3 kg weight, the infusion was rapidly administered to their ear veins at a dose of one g/kg body weight within 1.5 min, followed by collecting their blood at a prescribed time interval, and subjecting the collected blood samples to the measurements of their sugar levels (glucose concentration (mg/dl)) and insulin levels (μU/ml). As a control, 5 w/v % glucose solution isotonic to rabbit blood was similarly administered to rabbit veins at a dose of 0.5 g/kg body weight. Each result was expressed by the mean value of the 6 rabbits, and the time courses of the blood sugar- and insulin-levels of the rabbits were respectively shown in FIGS. 3 and 4. In the figures, the solid- and dashed-lines mean the time courses of trehalose and insulin in rabbit blood, respectively.

rabbits [4] = settings: rabbit
Experimental: as §2

rabbits [5] = settings: rabbit; for amount secreted in urine (in words): in vivo
living bodies = settings: prior art; cited from earlier work
[6] = improper dose or route of administration; cited from earlier work
[7] = Digestion test in vitro (salivary amylase); type: in vitro ADME; settings: Table 4, salivary amylase, read-out: Decomposition rate
Experimental: as §1

mice = experiment: Acute toxicity test; type: in vivo; settings: oral
Experimental: (§3) By using mice, trehalose was tested for its acute toxicity by orally administering it to the mice a hydrous crystalline trehalose prepared by the method in Experiment 1-2. […] Based on the result, the LD50 was 50 g/kg or higher, though the value was not so accurate.

Acute toxicity test = type: in vivo; settings: mouse, in vivo; oral, mice; "the value was not so accurate"
Experimental: as §3

[8] = Digestion test in vitro (gastric acid); type: in vitro ADME; settings: Table 4, gastric acid, read-out: Decomposition rate
Experimental: as §1

amylases = settings: Japanese Patent Laid-Open No. 240,758/88; cited from earlier work
human volunteers = experiment: Utilization test in vivo by oral administration (blood sugar and insulin levels)
Experimental: In accordance with the method reported by H. Atsuji et al. in Journal of Clinical Nutrition, Vol.41, No.2, pp.200-208 (1972), 30 g of a hydrous crystalline trehalose prepared by the method in Experiment 1-2 was dissolved in water into a 20 w/v % aqueous trehalose solution, and prescribed amounts of which were orally administered to 6 male volunteers, 26-31-year-old. The volunteers were let blood at a prescribed time interval, and each blood sample was measured its blood sugar level, i.e. glucose concentration (mg/dl) and insulin level (μU/ml). As a control, glucose was used. The results of both levels were the mean values of 6 volunteers. FIGS. 1 and 2 show the time courses of blood sugar- and insulin-levels, respectively. In the figures, the solid- and dashed-lines mean the time courses of trehalose and insulin, respectively.

[9] = Digestion test in vitro (pancreatic amylase); type: in vitro ADME; settings: Table 4, pancreatic amylase, read-out: Decomposition rate
Experimental: as §1

[10] = 20 w/v % aqueous solution, 6 male volunteers, mean

SMILES: OC[C@H]1O[C@@H](O[C@H]2[C@H](O)[C@@H](O)C(O)O[C@@H]2CO)[C@H](O)[C@@H](O)[C@@H]1O (some centres unmarked) [Cellobiose]
metabolised [1]: 1.2%

SMILES: OC[C@H]1O[C@H](OC[C@H]2OC(O)[C@H](O)[C@@H](O)[C@@H]2O)[C@H](O)[C@@H](O)[C@@H]1O (some centres unmarked) [Isomaltose]
metabolised [1]: 13.2%

SMILES: OC[C@H]1O[C@@H](O[C@H]2[C@H](O)[C@@H](O)C(O)O[C@@H]2CO)[C@H](O)[C@@H](O)[C@H]1O (some centres unmarked) [Lactose]
metabolised [1]: 9.7%

SMILES: OC[C@@H](O)[C@@H](O[C@@H]1O[C@H](CO)[C@H](O)[C@H](O)[C@H]1O)[C@H](O)[C@@H](O)CO [lactitol]
metabolism and utilization by living bodies (living bodies): not readily metabolized and utilized by living bodies

SMILES: OC[C@@H](O)[C@@H](O[C@H]1O[C@H](CO)[C@@H](O)[C@H](O)[C@H]1O)[C@H](O)[C@@H](O)CO [maltitol]
metabolism and utilization by living bodies (living bodies): not readily metabolized and utilized by living bodies

SMILES: OC[C@@H](O)[C@@H](O)[C@H](O)[C@@H](O)CO [sorbitol]
diarrhea [6]: may cause serious diarrhea

SMILES: OC[C@H]1O[C@H](O[C@H]2O[C@H](CO)[C@@H](O)[C@H](O)[C@H]2O)[C@H](O)[C@@H](O)[C@@H]1O [trehalose, O-α-D-glucopyranosyl α-D-glucopyranoside]
metabolised [7]: 0%
concentration isotonic to rabbit blood [3]: 10 w/v %
hydrolysis, metabolism and utilization in vivo (rabbits [4]): readily hydrolyzed into glucose in vivo, metabolized and utilized by living bodies as energy source
amount secreted in urine (in words) (rabbits [4]; in vivo): absolutely low
dynamics of blood sugar- and insulin-levels against glucose (rabbits [4]; in vivo): tended to show a time lag
toxicity (in words) (mice): relatively-low toxicity
mortality (mice; highest possible dose): no mouse died
LD50 (Acute toxicity test): ≥ 50000 mg/kg
degraded [8]: 0%
hydrolysis by amylases (amylases): not substantially hydrolyzed by amylases
assimilation, metabolism and utilization (human volunteers): readily assimilated, metabolized and utilized by living bodies as energy source
time of maximum of blood sugar level after administration (human volunteers; [10]): 30 to 45 min
time of maximum of insulin level after administration (human volunteers; [10]): 30 to 45 min
dynamics of blood sugar- and insulin-levels against glucose (human volunteers; FIGS. 1 and 2): tended to show a time lag
metabolised [9]: 0%
metabolised [1]: 1.3%
metabolism and utilization by living bodies (living bodies): not substantially assimilated and utilized by the body
hydrolysis, metabolism and utilization in vivo (rabbits [5]): readily hydrolyzed into glucose in vivo, metabolized and utilized by the living bodies as energy source
amount secreted in urine (in words) (rabbits [5]): absolutely low

SMILES: OC[C@@H](O)[C@H](O)[C@@H](O)CO [xylitol]
diarrhea [6]: may cause serious diarrhea

Now from value to molecule, other results behind:

metabolised [1]: 80.1%
SMILES: OC[C@H]1O[C@H](O[C@H]2[C@H](O)[C@@H](O)[C@H](O)O[C@@H]2CO)[C@H](O)[C@@H](O)[C@@H]1O (mixture of isomers) [Maltose]

metabolised [1]: 25.1%
SMILES: OC[C@H]1O[C@@](CO)(O[C@H]2O[C@H](CO)[C@@H](O)[C@H](O)[C@H]2O)[C@@H](O)[C@@H]1O [Sucrose]
hydrolysis under acidic conditions [2]: readily hydrolyzed

concentration isotonic to rabbit blood [3]: 5 w/v %
amount secreted in urine (in words) (rabbits [4]; in vivo): absolutely low
amount secreted in urine (in words) (rabbits [5]): absolutely low
SMILES: O=C[C@H](O)[C@@H](O)[C@H](O)[C@H](O)CO [glucose, reference compound]
